This is an account of results in US8664251B1, “Ryanodine receptor inhibitors for treatment of T-cell mediated disorders” (The Regents of the University of California, priority 2009, dated 2014).

The subject of one experiment is activated human T cells. Kind of experiment: Fura-2 calcium imaging in activated human T cells. The class given is cell-based. Particulars: for [Ca^2+]i elevation evoked by readdition of extracellular Ca^2+ ([Ca^2+]SOCE): activated T cells preincubated 30 min with 500 μM Ry or 30 μM Da, p<0.01, n=7. On the procedure: (§1) All studies involving human subjects were performed after approval by UC Davis Institutional Review Board and after all subjects gave written informed consent. Resting CD3^+ human lymphocytes were isolated from the peripheral blood of healthy consented adults using RosetteSep™ human lymphocyte enrichment kit (Stem Cell Tech.) following the manufacturer's instructions. Resting T cells were resuspended at 0.5−1×10^6 cells/ml in […] medium supplemented with 10 mM HEPES, 10% fetal bovine serum, 2% L-glutamine, 2% vitamins solution, 1% RPMI amino acids solution, and 0.01% β-mercaptoethanol and maintained in suspension in 5% CO2 at 37° C. Resting T cells were activated on the day of isolation by incubation with either PHA ([…]) or anti-CD3 antibody coated onto the tissue culture plates and soluble anti-CD28 antibody (5 m/ml; BD Biosciences). Resting T cells were taken for analysis on the day of isolation, whereas activated T cells were tested 4-5 days after activation.
Cell cultures and chemicals were as described in the Example 1. Before experiment, cells were plated on poly-l-lysine-coated glass-bottom clambers and then loaded with 1 μM fura-2/AM and pluronic F-127 for 5 min in modified Tyrode solution containing (in mM): 130 NaCl, 5.6 KCl, 1 MgCl2, 2 CaCl2, 10 HEPES, 10 D-glucose; pH 7.3. After washing, cells were incubated for additional 30 min at 37° C. […] In nominally Ca^2+-free solution, Ca^2+ was omitted.
Fluorescence images were acquired from adherent cells using a SenSys CCD camera (Roper Scientific, Tucson, Ariz.) and a 40× oil immersion Zeiss objective on a Zeiss Axiovert 200 inverted microscope (Thornwood, N.Y.). Lambda DG-4 filter changer (Sutter Instrument, Novato, Calif.) was used for switching between 340 and 380 nm excitation wavelengths. All experiments were performed at room temperature. Solution exchange was performed via a gravity-driven perfusion system. Solution exchange in the recording chamber was completed within 5 s. […] Unless otherwise indicated, in each experiment changes in [Ca^2+]i were recorded from 15-20 cells and then averaged.

The subject of another experiment is resting human T cells. Briefly: Fura-2 calcium imaging in resting human T cells. The experiment is classed as cell-based. The settings on record: resting T cells preincubated 30 min with 30 μM Da or 500 μM Ry; CPA then Ca^2+ readdition. How it is done: as §1
Cell cultures and chemicals were as described in the Example 1. […]
Fluorescence images were acquired from adherent cells using a SenSys CCD camera (Roper Scientific, Tucson, Ariz.) and a 40× oil immersion Zeiss objective on a Zeiss Axiovert 200 inverted microscope (Thornwood, N.Y.). […] Unless otherwise indicated, in each experiment changes in [Ca^2+]i were recorded from 15-20 cells and then averaged.

Experiment [1] concerns Jurkat T cells. Briefly: CFSE proliferation assay, Jurkat T cells. Particulars: 400 μM Ry or 30 μM Da, 72 hours. The experiment is classed as cell-based, human. How it is done: (§2) Cell cultures and chemicals were as described in the Example 1. Proliferation assay—Cell division track assay was conducted using carboxyfluorescein succinimidyl ester (CFSE) proliferation kit (Molecular probes). Stock solution of CFSE (4 mM) was prepared in DMSO. Cells were washed, resuspended in PBS containing 4 μM CFSE at density 1×10^6 cells/ml, and incubated at 37° C. for 10 min. Labeling was quenched by adding 5× volume of RPMI 1640 culture media containing 10% FBS. After washing 3 times with RPMI 1640+10% FBS, cells were placed into FBS-free cell culture media to abolish cell division and kept overnight in 5% CO2 at 37° C. After overnight incubation, the CFSE-labeled cells were pellet down and fraction of them (˜50000) were fixed with 1% paraformaldehyde in PBS and analyzed by flow cytometry to establish the CFSE fluorescence profile of undivided cells. […] Fluorescence intensity was measured at 488 nm using FACScan flow cytometer and CellQuest software (Becton Dickinson Bioscience, Mountain View, Calif.). The number of cell divisions was calculated using FlowJo software (Tree Star Inc, Ashland, Oreg.). […]
(§3) Freshly isolated CD3^+ resting human T cells or Jurkat T cells were loaded with CFSE and fraction of them was fixed with 1% paraformaldehyde in PBS and analyzed by flow cytometry to establish the CFSE fluorescence profile of undivided cells (time 0). […]

In a further experiment the test system is human T cells. Briefly: CFSE proliferation assay, human T cells activated with anti-CD3/CD28 Ab. The experiment is classed as cell-based. The settings on record: 400 μM Ry or 30 μM Da; anti-CD3/CD28 Ab activation. On the procedure:
as §2, §3

Experiment [2] relates to Jurkat T cells. Briefly: IL-2 production assay (ELISA), PHA-stimulated Jurkat T cells. The class given is cell-based, human. Particulars: Ry 400 μM or Da 30 μM applied 30 min prior to PHA, 24 hours, p<0.01, n=6. On the procedure: Jurkat T cells were washed 3 timed with PBS and resuspended in FBS-free cell culture media at density 0.8×10^6 cells/ml and seeded into 96 well tissue culture plate (0.4 ml per well) and then stimulated with […] mitogenic lectin phytohaemagglutinin P (PHA). Some cells were pre-incubated for 30 min at 37° C. with, Ry (400 μM), or dantrolene (30 μM) prior to stimulation with PHA. After 24 hours of incubation, cells culture supernatants were collected and contents of IL-2 was determined by ELISA using Quantikine kits (R&D systems, Minneapolis, Minn.) according to manufacturer instructions.
Background: ELISA stands for enzyme-linked immunosorbent assay.

The test system of experiment [3] is murine T cell. Particulars: cited from earlier work.
Experiment [4] relates to murine T cell. Particulars: murine T cells; cited from earlier work.
In experiment [5] the test system is Jurkat T cells. Kind of experiment: Fura-2 calcium imaging in Jurkat T cells. The experiment is classed as cell-based, human. On the procedure:
Cell cultures and chemicals were as described in the Example 1. Before experiment, cells were plated on poly-l-lysine-coated glass-bottom clambers and then loaded with 1 μM fura-2/AM and pluronic F-127 for 5 min in modified Tyrode solution containing (in mM): 130 NaCl, 5.6 KCl, 1 MgCl2, 2 CaCl2, 10 HEPES, 10 D-glucose; pH 7.3. After washing, cells were incubated for additional 30 min at 37° C. Some cells were incubated in Modified Tyrode solution containing 400 μM Ry, 30 μM dantrolene, or vehicles (methanol or, ethanol, or DMSO) alone for 30 min at 37° C. In nominally Ca^2+-free solution, Ca^2+ was omitted.
Fluorescence images were acquired from adherent cells using a SenSys CCD camera (Roper Scientific, Tucson, Ariz.) and a 40× oil immersion Zeiss objective on a Zeiss Axiovert 200 inverted microscope (Thornwood, N.Y.). Lambda DG-4 filter changer (Sutter Instrument, Novato, Calif.) was used for switching between 340 and 380 nm excitation wavelengths. All experiments were performed at room temperature. Solution exchange was performed via a gravity-driven perfusion system. Solution exchange in the recording chamber was completed within 5 s. The vehicles-containing solutions (methanol or DMSO) were applied in place of the drugs in all control experiments. Data acquisition was performed using MetaFluor v7.0 software (Universal Imaging, Downingtown, Pa.). [Ca^2+]i values were estimated from fura-2 calibration as described previously (Grynkiewicz, G., Poenie, M., and Tsien, R. Y. (1985) J Biol Chem 260(6), 3440-3450). Kd was taken as 248 nM (Fanger, C. M., Neben, A. L., and Cahalan, M. D. (2000) J Immunol 164(3), 1153-1160). Unless otherwise indicated, in each experiment changes in [Ca^2+]i were recorded from 15-20 cells and then averaged.

The subject of experiment [6] is Jurkat T cells. Briefly: Manganese quench of fura-2 fluorescence (divalent cation influx via SOC channels). The experiment is classed as cell-based, human. Particulars: Jurkat T cells preincubated 30 min with 400 μM Ry; with or without 30 μM CPA; n=5. An excerpt:
Because Mn^2+ readily passes through SOC channels (Missiaen, L., Declerck, I., Droogmans, G., Plessers, L., De Smedt, H., Raeymaekers, L., and Casteels, R. (1990) J Physiol 427, 171-186) and is unlikely to be transported from the cytosol (Chiesi, M., and Inesi, G. (1980) Biochemistry 19(13), 2912-2918; Chiesi, M., and Inesi, G. (1981) Arch Biochem Biophys 208(2), 586-592), the rate of fura-2 quenching in the presence of Mn^2+ was used as a measure of divalent cation influx into the bulk cytoplasm in intact cells. The extracellular solution used in all Mn^2+ quench experiments contained (in mM): 130 NaCl, 5.6 KCl, 1 MgCl2, 0.3 CaCl2, 0.5 MnCl2, 10 HEPES, 10 D-glucose; pH 7.3. Changes in Ca^2+-independent fluorescence due to Mn^2+ quench were determined using method described by Zhou & Neher (Zhou, Z., and Neher, E. (1993) J Physiol 469, 245-273). Briefly, background corrected fura-2 fluorescence excited at 340 nm (F340) was plotted against background corrected fura-2 fluorescence excited at 380 nm (F380) during the initial 10 seconds following application of 30 μM cyclopiazonic acid (CPA). The slope of the F340 versus F380 relationship equals the ‘isocoefficient’ α. The fluorescence value, Fi, which is unaffected by changes in [Ca^2+]i, was determined as: […]. […]

In the case of `Cn1c(=O)c2c(ncn2C)n(C)c1=O` [caffeine], the “Ca^2+ liberation from the ryanodine-sensitive store” value in the experiment with activated human T cells (caffeine 20 mM, activated human T cells, normal Tyrode solution) was “produced Ca^2+ liberation”.
On to `O=C1CN(N=Cc2ccc(-c3ccc([N+](=O)[O-])cc3)o2)C(=O)N1` [dantrolene, 1-[[[5-(4-nitrophenyl)-2-furanyl]methylene]amino]-2,4-imidaz olidinedione], for which the “time courses of changes in [Ca^2+]i” value in the experiment with resting human T cells was “did not affect”. In the experiment with activated human T cells, the “[Ca^2+]i elevation evoked by readdition of extracellular Ca^2+ ([Ca^2+]SOCE)” value was “reduced”. In addition, the “Jurkat T cell proliferation (CFSE fluorescence profile)” value in the experiment with Jurkat T cells [1] was “inhibit”. Besides, the “normal human activated T cell proliferation (CFSE fluorescence profile)” value in the experiment on human T cells is given as “inhibit”. In addition, the “PHA-induced IL-2 production” value in the experiment on Jurkat T cells [2] is on record as “significantly inhibited”. The “murine T cell proliferation following TCR stimulation” value with murine T cell [3] was “inhibit”. Also, the “IL-2 production following TCR stimulation” value in the experiment with murine T cell [4] is on record as “inhibit”.
As to `N.N.N.N.N.N.N.N.N.N.N.N.N.N.[Cl-].[Cl-].[Cl-].[Cl-].[Cl-].[Cl-].[O-2].[O-2].[Ru+3].[Ru+3].[Ru+4]` [ruthenium red], the “murine T cell proliferation following TCR stimulation” value in the experiment on murine T cell [3] was “inhibit”. For the same compound, the “IL-2 production following TCR stimulation” value in the experiment with murine T cell [4] is “inhibit”.
On to ryanodine, for which the “PHA-induced [Ca^2+]i transients in the absence of extracellular Ca^2+” value in the experiment on Jurkat T cells [5] (Jurkat T cells preincubated with 400 μM Ry) is on record as “did not significantly affect”. For the same compound, the “CPA-induced [Ca^2+]i transients following PHA in the absence of extracellular Ca^2+” value in the experiment with Jurkat T cells [5] (Jurkat T cells preincubated with 400 μM Ry, 30 μM CPA) is given as “did not significantly affect”. Besides, the “reduction of maximal amplitudes of [Ca^2+]i transients during Ca^2+ readdition following TCR stimulation” value in the experiment on Jurkat T cells [5] (Jurkat T cells preincubated with 400 μM Ry, PHA then 0.5 mM Ca^2+ readdition) was found to be 42%. The “[Ca^2+]i transients evoked by Ca^2+ readdition ([Ca^2+]SOCE)” value in the experiment with Jurkat T cells [5] (Jurkat T cells preincubated with Ry, 2 mM Ca^2+ readdition after CPA, p<0.01, n=6) is on record as “significantly downregulated”. Also, the “store refilling (CPA2/CPA1 ratio)” value in the experiment with Jurkat T cells [5] (Jurkat T cells preincubated with Ry, p<0.01, n=6) is “facilitated store refilling”. Also, the “Ca^2+ release on extracellular (acute) application” value in the experiment on Jurkat T cells [5] (Ry 400 applied in nominally Ca^2+-free extracellular solution, Jurkat T cells, n=5) was “does not induce Ca^2+ release”. The “divalent cation influx (Mn^2+ quench of fura-2 fluorescence)” value in the experiment with Jurkat T cells [6] was “does not induce Ca^2+ release (FIG. 2 D) or affect divalent ction influx”. Besides, the “time courses of changes in [Ca^2+]i” value in the experiment with resting human T cells is reported as “did not affect”. The “[Ca^2+]i elevation evoked by readdition of extracellular Ca^2+ ([Ca^2+]SOCE)” value with activated human T cells is reported as “reduced”. Also, in the experiment with Jurkat T cells [1], the “Jurkat T cell proliferation (CFSE fluorescence profile)” value is “inhibit”. Moreover, the “normal human activated T cell proliferation (CFSE fluorescence profile)” value in the experiment with human T cells was “inhibit”. Also, in the experiment on Jurkat T cells [2], the “PHA-induced IL-2 production” value is on record as “significantly inhibited”.
